Experiments:
[1] = target: T1, CD33 Y127A (Homo sapiens, UniProt P20138, Y127A); assay: SNAP-tag homogeneous time-resolved fluorescence binding assay, CD33 Y127A; conditions: Y127A variant, in words
T1 construct: human CD33 ORF (NM_001772.3), lacking its signal peptide; expressed in transfected cells; host or cells: HEK293T, transient, pT8-SNAP vector
Experimental: (§1) Figure 3 P22 Binding to CD33 Wild-Type and Mutants (A) An example of affinity analysis for 1–243 μM (3-fold dilutions) of P22 binding to immobilized CD33^C36S. Data obtained in duplicate using single-cycle analysis and fit to a steady-state binding model to determine the equilibrium binding constant. (B) An example of affinity analysis of P22 binding to immobilized CD33 wild-type (WT) as per example in (A). (C) Sensorgram data for 0.01–9 μM (3-fold dilutions) of CD33^C36S binding to immobilized P22. Data obtained in triplicate using single concentration cycles and fit to a 1:1 binding model for kinetic analysis. […]
(§2) We then used our structural data to design mutations of key residues interacting with P22 to assess which interactions were the most important for binding affinity. The residues were mutated into alanine, and the effect of these mutations on P22 binding affinity was assessed using a SNAP-tag homogeneous time-resolved fluorescence binding assay (see Transparent Methods and Figures 3E–3G). […]
(§3) HEK293T cells were cultured in DMEM (ThermoFisher Scientific # 11965092) containing 10% FBS (Hyclone # SH30070.03) and 1% Penicillin-Streptomycin (ThermoFisher Scientific # 15140122) and transfected using Fugene HD (Promega # E2312) in 10 cm plates. […] The cells were counted, centrifuged and resuspended in PBS at a concentration of 1,000 cells/μL and 10 μL were plated into each well. […]

[2] = target: CD33 R119A (Homo sapiens, UniProt P20138, R119A); assay: SNAP-tag homogeneous time-resolved fluorescence binding assay, CD33 R119A; set-up: human CD33 ORF (NM_001772.3), lacking its signal peptide; expressed in transfected cells; host or cells: HEK293T, transient, pT8-SNAP vector; conditions: binding affinity, R119A vs WT
Experimental: as §1, §2, §3

CD33 R119A, sequence (P20138 18-364 R119A): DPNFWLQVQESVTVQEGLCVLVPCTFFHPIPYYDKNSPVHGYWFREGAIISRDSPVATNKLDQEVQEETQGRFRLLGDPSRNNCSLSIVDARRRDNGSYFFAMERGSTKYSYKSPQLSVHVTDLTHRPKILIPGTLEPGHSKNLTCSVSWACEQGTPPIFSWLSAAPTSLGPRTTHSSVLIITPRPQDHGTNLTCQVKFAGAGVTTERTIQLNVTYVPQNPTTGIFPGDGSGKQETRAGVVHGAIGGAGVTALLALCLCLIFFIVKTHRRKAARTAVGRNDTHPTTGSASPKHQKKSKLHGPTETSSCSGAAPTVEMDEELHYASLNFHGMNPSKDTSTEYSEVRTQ
T1 sequence (P20138 18-364 Y127A): as the sequence (P20138 18-364 R119A) above, with A102R, Y110A counted along it

specific binding (total binding – binding in presence of 100 μM non-labeled P22) [1]: completely abolished
Fold-decrease compared to WT [2]: > 30 fold
Structure (SMILES): Cc1cc(C(=O)NC[C@@H](O)[C@@H](O)[C@@H]2O[C@@](OC[C@H]3O[C@@H](O[C@H]4[C@H](O)[C@@H](O)[C@H](OCCN)O[C@@H]4CO)[C@H](O)[C@@H](O)[C@H]3O)(C(=O)O)C[C@H](O)[C@H]2NC(=O)Cn2cc(C3CCCCC3)nn2)cc(C)c1O [P22, β-D-Glucopyranoside, 2-aminoethyl O-[N-[2-(4-cyclohexyl-1H-1,2,3-triazol-1-yl)acetyl]-9-deoxy-9-[(4-hydroxy-3,5-dimethylbenzoyl)amino]-α-neuraminosyl] (2→6)-O-β-D-galactopyranosyl-(1→4)-]
